In brackets after ≈: the same amount, converted by molar mass.
How the values were obtained:
[1] = tested on: Streptococcus pyogenes C 203; assay: agar-dilution streak-plate antibacterial assay (8); type: cell-based; settings: C203, read-out: Minimal inhibitory conc.
Protocol: (§1) The novel compounds of the present invention are also useful as antimicrobial agents. […] In this assay, the compounds to be tested are made up to contain 2.5 mg. of test compound per milliliter of solution. Observing sterile techniques, two-fold serial dilutions are made of each test solution. One milliliter of each of the original solutions and of each of the serial dilutions is then added to 9 ml. of warm sterile nutrient agar capable of supporting growth of the bacterial test cultures. A second set of agar dilutions is prepared identical to the first except that the nutrient agar is designed to support the growth of the fungal test cultures. […] The test bacteria and yeast-like fungi are prepared for use by growing in broth overnight. The spores of the filamentous fungi are harvested from mature agar slant cultures and are suspended in sterile physiological saline solution. A loopful of each of the resulting live suspensions is then, still employing sterile techniques, streaked upon the surfaces of each of the agar plates and the resulting streaked plates are then incubated. After an appropriate period of time, each of the streaks on each of the plates is inspected visually and the extent, if any, of bacterial or fungal growth is noted. The minimal inhibitory concentration (expressed in micrograms per milliliter) is defined as the concentration of test compound causing complete inhibition of growth of any particular organism. In a representative operation, and merely by way of illustration, the minimal inhibitory concentration of typical compounds of the present invention against a variety of test organisms as determined in the above-described assay are set forth in Tables II and III below: […]

[2] = tested on: Microsporum canis ATCC 10214; assay: agar-dilution streak-plate antifungal assay (1); type: cell-based; settings: ATCC10214, read-out: Minimal inhibitory conc.
Protocol: as §1

[3] = tested on: Trichophyton tonsurans NIH 662; assay: agar-dilution streak-plate antifungal assay (3); type: cell-based; settings: NIH662, read-out: Minimal inhibitory conc.
Protocol: as §1

[4] = tested on: Mycobacterium smegmatis ATCC 606; assay: agar-dilution streak-plate antibacterial assay (6); type: cell-based; settings: Mycolicibacterium smegmatis, ATCC606, read-out: Minimal inhibitory conc.
Protocol: as §1

diastolic blood pressure = assay: hypotensive activity in anesthetized rats (minimal dose lowering diastolic blood pressure about 10 mm.); type: in vivo, Male Wistar strain rats; settings: Rattus norvegicus; intravenous; dose producing a decrease of about 10 mm. in diastolic blood pressure
Protocol: This procedure is a modification of the technique described by Pike et al., Prostaglandins, Nobel Symposium 2, Stockholm, June, 1966; p. 165.
Male Wistar strain rats (Royal Hart Farms) averaging approximately 250 grams in weight were fastened to rat boards in a supine position by means of canvas vests and limb ties. The femoral area was infiltrated subcutaneously with lidocaine and the iliac artery and vein were exposed and cannulated. Arterial blood pressure (systolic/diastolic) was recorded using a Statham P23 Db pressure transducer-Offner dynograph system. To obtain a stable blood pressure, the animals were anesthetized before use with pentobarbital, 30 mg./kg. of body weight intravenously, and also were given hexamethonium bitartrate, 2 mg./kg., of body weight intravenously. The test compounds were prepared by ultrasonic dispersion in a saline-Tween 80 vehicle. A constant intravenous dose volume of 0.5 ml. was administered and test doses ranged from 0.1 to 10.0 mg./kg. of body weight. Increasing or decreasing doses were selected depending on the dose response obtained. In Table I below are set forth the minimal doses required to produce a decrease of about 10 mm. in diastolic blood pressure for typical compounds of the present invention.

[5] = tested on: Trichophyton mentagrophytes E 11?; assay: agar-dilution streak-plate antifungal assay (4); type: cell-based; settings: read-out: Minimal inhibitory conc.
Protocol: as §1

[6] = tested on: Staphylococcus aureus Rose ATCC 14154; assay: agar-dilution streak-plate antibacterial assay (7); type: cell-based; settings: ATCC14154, read-out: Minimal inhibitory conc.
Protocol: as §1

[7] = tested on: dl-PGE1-induced contraction of gerbil colon; assay: inhibition of dl-PGE1-induced contraction of gerbil colon; settings: approximate; for ID50 vs. 20 ng. of PGE1 /ml.: sub-maximal challenge, 20 ng./ml. dl-PGE1, 50% inhibition of maximum response; for ID50 vs. 200 ng. of PGE1 ml.: maximal challenge, 200 ng./ml. dl-PGE1
[8] = tested on: Microsporum gypseum ATCC 14683; assay: agar-dilution streak-plate antifungal assay (2); type: cell-based; settings: Nannizzia gypsea, ATCC14683, read-out: Minimal inhibitory conc.
Protocol: as §1

Trichophyton rubrum E 97 = assay: agar-dilution streak-plate antifungal assay (5); type: cell-based; settings: E97, read-out: Minimal inhibitory conc.
Protocol: as §1

gastric acid secretion = assay: inhibition of gastric acid secretion (pylorus-ligated rat, Shay rat); type: in vivo, rats (male, CFE strain); settings: intraduodenal dose 100 mg./kg. body weight, 3 hours, 20% or more considered active
Protocol: The novel compounds of the present invention are also effective inhibitors of gastric acid secretion and of ulcer development in experimental animals, and thus are potentially valuable as agents for the control of gastric acid secretion and of gastric erosion and as anti-ulcer agents. Gastric acid secretion inhibitory action is usually measured by the "Shay rat" procedure ^(1,2) with some modifications as follows.
The rats (male, CFE strain) were starved for 48 hours (water was given ad libitum) to permit evacuation of stomach contents. On the morning of the experiment, under ether anesthesia, the abdominal region was shaved and a midline incision (1-11/2 inches) was made with a scalpel. With the help of a closed curved hemostat the duodenum was picked up. Upon getting the duodenum into view fingers were used to pull the stomach through the opening, the stomach was then gently manipulated with fingers to rid the stomach of air and residual matter which were pushed through the pylorus. Two 5-inch sutures were drawn under the pyloric-duodenal juncture. A ligature, at the juncture, was formed with one of the threads. The second ligature was also formed by not tightened.
The test compound or the vehicle, usually 1 ml./100 g. body weight, were injected into the duodenum as close as possible to the first ligature. After injection the second ligature was tightened below the injection site to minimize leakage. The stomach was placed back through the opening into the abdominal cavity, the area of incision was washed with saline and the incision was closed with autoclips. (Ocasionally, instead of an intraduodenal injection, animals were dosed by the oral or subcutaneous route. In the latter case, dosing was done thirty to sixty minutes before the operation).
The abdominal cavity was exposed by cutting with scissors and the esophagus close to the stomach was clamped off with a hemostat, the stomach was removed by cutting above the hemostat (the espohagus was cut) and between the two sutures. Extraneous tissue was removed, the stomach washed with saline and blotted on gauze. A slit was carefully made in the stomach which was held over a funnel and the contents were collected in a centrifuge tube. The stomach was further cut along the outside edge and turned inside out. Two ml. of water were used to wash the stomach contents into the respective centrifuge tube. The combined stomach contents and wash were then centrifuged out for 10 minutes in the International Size 2 Centrifuge (setting at 30). The supernatant was collected, volume measured and recorded, 2 drops of phenolphthalein indicator (1% in 95% ethanol) were added and the solution was titrated with 0.02N NaOH (or with 0.04N NaOH when large volumes of stomach contents were encountered) to pH 8.4 (because of usual coloring of the stomach contents, phenolphthalein was only used to permit visual indication that the end point was near) and the amount of acid present was calculated.
Compounds inducing inhibition of gastric acid secretion of 20% or more were considered active. In a representative operation, and merely by way of illustration, the results obtained with this assay with typical compounds of the present invention are given in Table IIIA.

Compound	MIC [1] [µg/mL]	MIC [2] [µg/mL]	MIC [3] [µg/mL]	MIC [4] [µg/mL]	MIC [5] [µg/mL]	MIC [6] [µg/mL]	MIC [8] [µg/mL]	MIC (Trichophyton rubrum E 97) [µg/mL]	minimal effective dose (diastolic blood pressure) [mg/kg]	ID50 vs. 20 ng. of PGE1 /ml. [7] [µg/mL]	ID50 vs. 200 ng. of PGE1 ml. [7] [µg/mL]	Percent Inhibition of gastric acid secretion (gastric acid secretion) [%]
CCCCCC/C=C/[C@H]1CCC(=O)[C@@H]1CCCCCCC(=O)N1CCN(c2ccccc2)CC1 (relative stereo)									8			
CCCCCC/C=C/[C@H]1CCC(O)[C@@H]1CCCCCCC(=O)NCCCN(C)C (stereo partly drawn) [N-(3-dimethylaminopropyl)-9-(α- and β-)-hydroxy-13-trans-prostenamide]	6 (≈ 14.7 µM)	250 (≈ 612 µM)	125 (≈ 306 µM)	6 (≈ 14.7 µM)	125 (≈ 306 µM)	62 (≈ 152 µM)	125 (≈ 306 µM)	250 (≈ 612 µM)	0.2			85
CCCCCC/C=C/[C@H]1CCC(=O)[C@@H]1CCCCCCC(=O)N1CCN(C)CC1 (relative stereo)										0.5	3	

Second part, led by results:

MIC [1] [µg/mL]	MIC [2] [µg/mL]	MIC [3] [µg/mL]	MIC [4] [µg/mL]	MIC [5] [µg/mL]	MIC [6] [µg/mL]	MIC [8] [µg/mL]	MIC (Trichophyton rubrum E 97) [µg/mL]	Compound	minimal effective dose (diastolic blood pressure) [mg/kg]	ID50 vs. 20 ng. of PGE1 /ml. [7] [µg/mL]	ID50 vs. 200 ng. of PGE1 ml. [7] [µg/mL]	Percent Inhibition of gastric acid secretion (gastric acid secretion) [%]
25 (≈ 63.8 µM)	250 (≈ 638 µM)	250 (≈ 638 µM)	25 (≈ 63.8 µM)	250 (≈ 638 µM)				CCCCCC/C=C/[C@H]1CCC(=O)[C@@H]1CCCCCCC(=O)N1CCOCC1 (relative stereo)	1			
10 (≈ 27.4 µM)	25 (≈ 68.4 µM)	25 (≈ 68.4 µM)	25 (≈ 68.4 µM)	10 (≈ 27.4 µM)	25 (≈ 68.4 µM)	25 (≈ 68.4 µM)	25 (≈ 68.4 µM)	CCCCCC/C=C/[C@H]1CCC(=O)[C@@H]1CCCCCCC(=O)NCCO (relative stereo) [N-(2-hydroxyethyl)-9-oxo-13-trans-prostenamide]	0.4	1		
250 (≈ 741 µM)	250 (≈ 741 µM)	250 (≈ 741 µM)	250 (≈ 741 µM)	250 (≈ 741 µM)	250 (≈ 741 µM)	250 (≈ 741 µM)	250 (≈ 741 µM)	CCCCCC/C=C/[C@H]1CCC(=O)[C@@H]1CCCCCCC(=O)NO (relative stereo)	2		12	38
	100 (≈ 298 µM)	25 (≈ 74.5 µM)		25 (≈ 74.5 µM)	5 (≈ 14.9 µM)	50 (≈ 149 µM)	100 (≈ 298 µM)	CCCCCC/C=C/[C@H]1CCC(=O)[C@@H]1CCCCCCC(=O)NC (relative stereo) [N-methyl-9-oxo-13-trans-prostenamide]	4 to 8			
10 (≈ 28.6 µM)	25 (≈ 71.5 µM)	25 (≈ 71.5 µM)	10 (≈ 28.6 µM)	25 (≈ 71.5 µM)	25 (≈ 71.5 µM)	25 (≈ 71.5 µM)	25 (≈ 71.5 µM)	CCCCCC/C=C/[C@H]1CCC(=O)[C@@H]1CCCCCCC(=O)N(C)C (relative stereo) [N,N-dimethyl-9-oxo-13-trans-prostenamide]	2	2		
